In ChEMBL document CHEMBL6071211, “Invention of VH-937, a Potent HIV-1 Maturation Inhibitor with the Potential for Infrequent Oral Dosing in Humans” (ACS Med Chem Lett, 2024):
pEC50: −log10 of the molar value.

Assays:
[1] = tested on: Human immunodeficiency virus 1; assay: In vitro antiviral activity against fully replicating wild type HIV1 NL4-3; format: functional, organism-based
[2] = tested on: Human immunodeficiency virus 1; assay: In vitro antiviral activity against fully replicating wild type HIV1 NL4-3 in presence of human serum; format: functional, organism-based
[3] = tested on: Human immunodeficiency virus 1; assay: In vitro antiviral activity against fully replicating HIV1 NL4-3 harboring Gag T332S/V362I/prR41G mutant; format: functional, organism-based
[4] = tested on: Human immunodeficiency virus 1; assay: In vitro antiviral activity against fully replicating HIV1 NL4-3 harboring Gag A364V mutant; format: functional, organism-based
[5] = tested on: Human immunodeficiency virus 1; assay: Binding affinity to HIV1 Gag A364V mutant assessed as dissociation half life by virus-like particle (VLP) assay
[6] = Human immunodeficiency virus 1, NL4-3

Structure (SMILES)	pEC50 [1, 6]	pEC50 [2, 6]	pEC50 [3, 6]	pEC50 [4, 6]	pEC50 [1]	pEC50 [2]	pEC50 [3]	pEC50 [4]	T1/2 [5] [min]
C=C(C)[C@@H]1CC[C@]2(NCCN3CCS(=O)(=O)CC3)CC[C@]3(C)[C@H](CC[C@@H]4[C@@]5(C)CC=C(C6=CCC(COc7cccc(F)c7)(C(=O)O)CC6)C(C)(C)[C@@H]5CC[C@]43C)[C@@H]12 (mixture of isomers)	8.08	7.83	7.46	7.25					
C=C(C)[C@@H]1CC[C@]2(NCCN3CCS(=O)(=O)CC3)CC[C@]3(C)[C@H](CC[C@@H]4[C@@]5(C)CC=C(C6=CCC(COc7ccncc7)(C(=O)O)CC6)C(C)(C)[C@@H]5CC[C@]43C)[C@@H]12 (mixture of isomers)	8.68	7.48	7.85	7.46					
C=C(C)[C@@H]1CC[C@]2(NCCN3CCS(=O)(=O)CC3)CC[C@]3(C)[C@H](CC[C@@H]4[C@@]5(C)CC=C(C6=CC[C@@](COc7cnccn7)(C(=O)O)CC6)C(C)(C)[C@@H]5CC[C@]43C)[C@@H]12	8.55	7.32	7.83	7.67					
C=C(C)[C@@H]1CC[C@]2(NCCN3CCS(=O)(=O)CC3)CC[C@]3(C)[C@H](CC[C@@H]4[C@@]5(C)CC=C(C6=CC[C@](COc7ccccn7)(C(=O)O)CC6)C(C)(C)[C@@H]5CC[C@]43C)[C@@H]12	8.80	7.26	8.06	8.24					
C=C(C)[C@@H]1CC[C@]2(NCCN3CCS(=O)(=O)CC3)CC[C@]3(C)[C@H](CC[C@@H]4[C@@]5(C)CC=C(C6=CCC(COc7ncccn7)(C(=O)O)CC6)C(C)(C)[C@@H]5CC[C@]43C)[C@@H]12 (mixture of isomers)	8.74	7.28	7.90	8.35					
C=C(C)[C@@H]1CC[C@]2(NCCN3CCS(=O)(=O)CC3)CC[C@]3(C)[C@H](CC[C@@H]4[C@@]5(C)CC=C(C6=CCC(COc7cccc(Cl)c7)(C(=O)O)CC6)C(C)(C)[C@@H]5CC[C@]43C)[C@@H]12 (mixture of isomers)	7.97	7.66	7.31	7.77					
C=C(C)[C@@H]1CC[C@]2(NCCN3CCS(=O)(=O)CC3)CC[C@]3(C)[C@H](CC[C@@H]4[C@@]5(C)CC=C(C6=CC[C@@](COc7ncccc7C#N)(C(=O)O)CC6)C(C)(C)[C@@H]5CC[C@]43C)[C@@H]12 [ZEGRUVIRIMAT]	8.60	7.39	8.24	7.28					
C=C(C)[C@@H]1CC[C@]2(NCCN3CCS(=O)(=O)CC3)CC[C@]3(C)[C@H](CC[C@@H]4[C@@]5(C)CC=C(C6=CCC(COc7cc(C#N)ccn7)(C(=O)O)CC6)C(C)(C)[C@@H]5CC[C@]43C)[C@@H]12 (mixture of isomers)	9.05	7.33	7.19	7.14					
C=C(C)[C@@H]1CC[C@]2(NCCN3CCS(=O)(=O)CC3)CC[C@]3(C)[C@H](CC[C@@H]4[C@@]5(C)CC=C(C6=CCC(COc7ccc(Cl)cc7)(C(=O)O)CC6)C(C)(C)[C@@H]5CC[C@]43C)[C@@H]12 (stereo in doubt; 9)					8.49	8.00	7.07	6.61	
C=C(C)[C@@H]1CC[C@]2(NCCN3CCS(=O)(=O)CC3)CC[C@]3(C)[C@H](CC[C@@H]4[C@@]5(C)CC=C(C6=CCC(COc7nnnn7C)(C(=O)O)CC6)C(C)(C)[C@@H]5CC[C@]43C)[C@@H]12 (mixture of isomers)	8.77	7.44	8.17	7.62					
C=C(C)[C@@H]1CC[C@]2(NCCN3CCS(=O)(=O)CC3)CC[C@]3(C)[C@H](CC[C@@H]4[C@@]5(C)CC=C(C6=CCC(COc7ccccc7F)(C(=O)O)CC6)C(C)(C)[C@@H]5CC[C@]43C)[C@@H]12 (mixture of isomers)	8.21	7.23	7.71	7.56					
C=C(C)[C@@H]1CC[C@]2(NCCN3CCS(=O)(=O)CC3)CC[C@]3(C)[C@H](CC[C@@H]4[C@@]5(C)CC=C(C6=CCC(COc7ccc(C#N)cn7)(C(=O)O)CC6)C(C)(C)[C@@H]5CC[C@]43C)[C@@H]12 (mixture of isomers)	8.72	7.46	6.63	7.54					
C=C(C)[C@@H]1CC[C@]2(NCCN3CCS(=O)(=O)CC3)CC[C@]3(C)[C@H](CC[C@@H]4[C@@]5(C)CC=C(C6=CCC(COc7ccc(F)cc7)(C(=O)O)CC6)C(C)(C)[C@@H]5CC[C@]43C)[C@@H]12 (mixture of isomers)	8.33	7.13	7.58	7.66					
C=C(C)[C@@H]1CC[C@]2(NCCN3CCS(=O)(=O)CC3)CC[C@]3(C)[C@H](CC[C@@H]4[C@@]5(C)CC=C(C6=CC[C@@](CF)(C(=O)O)CC6)C(C)(C)[C@@H]5CC[C@]43C)[C@@H]12 [FIPRAVIRIMAT]		7.86							< 1
C=C(C)[C@@H]1CC[C@]2(NCCN3CCS(=O)(=O)CC3)CC[C@]3(C)[C@H](CC[C@@H]4[C@@]5(C)CC=C(C6=CC[C@@](COc7ccccn7)(C(=O)O)CC6)C(C)(C)[C@@H]5CC[C@]43C)[C@@H]12	8.46	7.35	7.72	8.14					
C=C(C)[C@@H]1CC[C@]2(NCCN3CCS(=O)(=O)CC3)CC[C@]3(C)[C@H](CC[C@@H]4[C@@]5(C)CC=C(c6ccc(C(=O)O)cc6)C(C)(C)[C@@H]5CC[C@]43C)[C@@H]12									< 1
C=C(C)[C@@H]1CC[C@]2(NCCN3CCS(=O)(=O)CC3)CC[C@]3(C)[C@H](CC[C@@H]4[C@@]5(C)CC=C(C6=CCC(COc7ccncn7)(C(=O)O)CC6)C(C)(C)[C@@H]5CC[C@]43C)[C@@H]12 (mixture of isomers)	8.77	7.63	7.16	8.00					
C=C(C)[C@@H]1CC[C@]2(NCCN3CCS(=O)(=O)CC3)CC[C@]3(C)[C@H](CC[C@@H]4[C@@]5(C)CC=C(C6=CCC(COc7ccccc7Cl)(C(=O)O)CC6)C(C)(C)[C@@H]5CC[C@]43C)[C@@H]12 (mixture of isomers)	8.01	7.22	7.64	7.70					
C=C(C)[C@@H]1CC[C@]2(NCCN3CCS(=O)(=O)CC3)CC[C@]3(C)[C@H](CC[C@@H]4[C@@]5(C)CC=C(C6=CCC(COc7ccccn7)(C(=O)O)CC6)C(C)(C)[C@@H]5CC[C@]43C)[C@@H]12 (mixture of isomers)	8.59	7.21	7.84	7.95					
C=C(C)[C@@H]1CC[C@]2(NCCN3CCS(=O)(=O)CC3)CC[C@]3(C)[C@H](CC[C@@H]4[C@@]5(C)CC=C(C6=CCC(COc7cccnc7)(C(=O)O)CC6)C(C)(C)[C@@H]5CC[C@]43C)[C@@H]12 (mixture of isomers)	8.72	7.44	8.24	7.57					
C=C(C)[C@@H]1CC[C@]2(NCCN3CCS(=O)(=O)CC3)CC[C@]3(C)[C@H](CC[C@@H]4[C@@]5(C)CC=C(C6=CCC(COc7cccnn7)(C(=O)O)CC6)C(C)(C)[C@@H]5CC[C@]43C)[C@@H]12 (mixture of isomers)	8.59	7.22	7.33	8.46					
C=C(C)[C@@H]1CC[C@]2(NCCN3CCS(=O)(=O)CC3)CC[C@]3(C)[C@H](CC[C@@H]4[C@@]5(C)CC=C(C6=CCC(COc7cccc(C#N)n7)(C(=O)O)CC6)C(C)(C)[C@@H]5CC[C@]43C)[C@@H]12 (mixture of isomers)	7.86	7.80	7.80	7.58					
C=C(C)[C@@H]1CC[C@]2(NCCN3CCS(=O)(=O)CC3)CC[C@]3(C)[C@H](CC[C@@H]4[C@@]5(C)CC=C(C6=CCC(COc7ccccc7)(C(=O)O)CC6)C(C)(C)[C@@H]5CC[C@]43C)[C@@H]12 (mixture of isomers)	8.30	7.23	7.56	7.71					
C=C(C)[C@@H]1CC[C@]2(NCCN3CCS(=O)(=O)CC3)CC[C@]3(C)[C@H](CC[C@@H]4[C@@]5(C)CC=C(C6=CCC(COc7nccs7)(C(=O)O)CC6)C(C)(C)[C@@H]5CC[C@]43C)[C@@H]12 (mixture of isomers)	8.44	7.61	7.41	8.62					
C=C(C)[C@@H]1CC[C@]2(NCCN3CCS(=O)(=O)CC3)CC[C@]3(C)[C@H](CC[C@@H]4[C@@]5(C)CC=C(C6=CCC(COc7ccc(Cl)cc7)(C(=O)O)CC6)C(C)(C)[C@@H]5CC[C@]43C)[C@@H]12 (stereo in doubt; 8)			7.30		7.53	6.83		7.12	
C=C(C)[C@@H]1CC[C@]2(NCCN3CCS(=O)(=O)CC3)CC[C@]3(C)[C@H](CC[C@@H]4[C@@]5(C)CC=C(C6=CCC(COCc7ccccc7)(C(=O)O)CC6)C(C)(C)[C@@H]5CC[C@]43C)[C@@H]12 (mixture of isomers)	8.11	7.01	7.66	7.30					
